Measured values from patent publication US20230255953A1, “USE OF ROLUPERIDONE IN PREVENTING RELAPSE IN SCHIZOPHRENIA PATIENTS” (Minerva Neurosciences, Inc., priority 2022, published 2023).

Tested on: patients with negative symptoms of schizophrenia
Assay: Integrated analysis of Studies #1 and #2 (pooled ITT): PANSS-derived scores (NSFS, total, positive and negative subscales), DB, OL and whole study
Assay type: in vivo, human
Design: key to NSFS Score change from Baseline, Median: change from Baseline in PANSS NSFS points; higher score = more severe
Settings: for NSFS Score change from Baseline, LS mean (SE) / NSFS Score change from Baseline, Mean (SD) / NSFS Score change from Baseline, Median / NSFS Score, Difference (95% CI) in LS mean (vs placebo) / PANSS Negative Subscale Score change from Baseline, LS mean (SE) / PANSS Negative Subscale Score change from Baseline, Mean (SD) / PANSS Negative Subscale Score change from Baseline, Median / PANSS Negative Subscale Score, Difference (95% CI) in LS mean (vs placebo) / PANSS Total Score change from Baseline, LS mean (SE) / PANSS Total Score change from Baseline, Mean (SD) / PANSS Total Score change from Baseline, Median / PANSS Total Score, Difference (95% CI) in LS mean (vs placebo): DB
Method: The primary integrated analysis of the efficacy of Roluperidone compared with placebo for the treatment of negative symptoms of schizophrenia is based on the change from Baseline in the PANSS Marder's negative symptoms factor score (in this document referred to as NSFS) to Week 12. Efficacy is also supported by the analysis of change from Baseline in the PSP Total score and the CGI-S to Week 12.
The PANSS was assessed at the time points described in Table 4.
The PANSS-derived endpoints used in these studies and the integrated analyses are described in Table 5A and a summary of the individual PANSS items used by physicians and clinicians to measure the severity of the symptoms in a schizophrenia patient is provided in Table 5B. The scale is divided into three parts, a positive scale, which provides a “PANSS positive subscore”, a negative scale, which provides a “PANSS negative subscore”, and general psychopathology scale. The sum of these three parts provides a PANSS total score, which ranges from 30 to 210 (where higher scores indicate more severe symptoms). (See Kay, S. R., et al. “The positive and negative syndrome scale (PANSS) for schizophrenia,” Schizophr Bulletin, 13(2), 261-276 (1987) and Gopal, S., et al. “Improvement of Negative Symptoms in Schizophrenia with Paliperidone Palmitate 1-Month and 3-Month Long-Acting Injectables: Results from a Phase 3 Non-Inferiority Study” Neuropsychiatric Disease and Treatment, 681-690, DOI: 10.2147/NDT.5226296, both of which are incorporated by reference.)
The Efficacy data from Study Nos. 1 and 2 were pooled. The majority of patients in the pooled ITT population completed the DB period (502 patients overall, 66.3%), with similar rates in each treatment group (placebo: 69.8%, 32 mg Roluperidone: 65.3%, and 64 mg Roluperidone: 63.8%) (Table 12). The majority (62.7%) of those who completed the DB period entered the OL period. The most common reason for discontinuation during the DB period among patients overall was withdrawal of consent (15.6%), followed by adverse events (7.3%) and lack of efficacy (5.4%) (Table 12). […] Approximately twice as many patients in the Roluperidone groups (32 mg: 8.5%; 64 mg: 9.1%) discontinued due to adverse events compared with patients in the placebo group (4.3%). More patients in the placebo group discontinued due to lack of efficacy (6.7%) than in the Roluperidone groups (32 mg: 4.4%; 64 mg: 5.1%). The low number of patients who discontinued due to lack of efficacy or withdrawal of consent probably reflects a low level of worsening of positive symptoms.
The integrated analysis supporting the efficacy of Roluperidone as a treatment for the negative symptoms of schizophrenia in adults is presented below.

## 1H-Isoindol-1-one,2-[ [1-[2-(4-fluorophenyl)-2-oxoethyl]-4-piperidinyl]methyl]-2,3-dihydro-, hydrochloride, hydrate (1:1:2) [Roluperidone]
32 mg and 64 mg groups, OL period incl. 2 weeks after end of treatment, pooled
  Mean NSFS score improvements, persistence in OL period: sustained and continued during the OL period
32 mg, Week 2, pooled ITT
  NSFS Score change from Baseline, LS mean (SE): −1.1 (0.15)
  NSFS Score change from Baseline, Mean (SD): −1.1 (2.15)
  NSFS Score change from Baseline, Median: −1.0
  NSFS Score, Difference (95% CI) in LS mean (vs placebo): −0.2
  PANSS Negative Subscale Score change from Baseline, LS mean (SE): −1.2 (0.14)
  PANSS Negative Subscale Score change from Baseline, Mean (SD): −1.2 (2.11)
  PANSS Negative Subscale Score change from Baseline, Median: −1.0
  PANSS Negative Subscale Score, Difference (95% CI) in LS mean (vs placebo): −0.1
  PANSS Total Score change from Baseline, LS mean (SE): −1.7 (0.44)
  PANSS Total Score change from Baseline, Mean (SD): −1.8 (6.62)
  PANSS Total Score change from Baseline, Median: −2.0
  PANSS Total Score, Difference (95% CI) in LS mean (vs placebo): −0.4
  PANSS Positive Subscale Score change from Baseline, LS mean (SE): 0.3 (0.17)
  PANSS Positive Subscale Score change from Baseline, Mean (SD): 0.2 (2.71)
  PANSS Positive Subscale Score change from Baseline, Median: 0.0
  PANSS Positive Subscale Score, Difference (95% CI) in LS mean (vs placebo): 0.3
32 mg, Week 4, pooled ITT
  NSFS Score change from Baseline, LS mean (SE): −2.0 (0.19)
  NSFS Score change from Baseline, Mean (SD): −2.2 (2.53)
  NSFS Score change from Baseline, Median: −2.0
  NSFS Score, Difference (95% CI) in LS mean (vs placebo): −0.7
  PANSS Negative Subscale Score change from Baseline, LS mean (SE): −2.1 (0.19)
  PANSS Negative Subscale Score change from Baseline, Mean (SD): −2.3 (2.67)
  PANSS Negative Subscale Score change from Baseline, Median: −2.0
  PANSS Negative Subscale Score, Difference (95% CI) in LS mean (vs placebo): −0.6
  PANSS Total Score change from Baseline, LS mean (SE): −3.6 (0.53)
  PANSS Total Score change from Baseline, Mean (SD): −4.4 (7.09)
  PANSS Total Score change from Baseline, Median: −4.0
  PANSS Total Score, Difference (95% CI) in LS mean (vs placebo): −1.6
  PANSS Positive Subscale Score change from Baseline, LS mean (SE): −0.1 (0.18)
  PANSS Positive Subscale Score change from Baseline, Mean (SD): −0.4 (2.49)
  PANSS Positive Subscale Score change from Baseline, Median: 0.0
  PANSS Positive Subscale Score, Difference (95% CI) in LS mean (vs placebo): −0.3
32 mg, Week 8, pooled ITT
  NSFS Score change from Baseline, LS mean (SE): −3.0 (0.23)
  NSFS Score change from Baseline, Mean (SD): −3.2 (3.21)
  NSFS Score change from Baseline, Median: −3.0
  NSFS Score, Difference (95% CI) in LS mean (vs placebo): −0.8
  PANSS Negative Subscale Score change from Baseline, LS mean (SE): −3.1 (0.24)
  PANSS Negative Subscale Score change from Baseline, Mean (SD): −3.2 (3.46)
  PANSS Negative Subscale Score change from Baseline, Median: −3.0
  PANSS Negative Subscale Score, Difference (95% CI) in LS mean (vs placebo): −0.7
  PANSS Total Score change from Baseline, LS mean (SE): −4.9 (0.66)
  PANSS Total Score change from Baseline, Mean (SD): −6.2 (7.89)
  PANSS Total Score change from Baseline, Median: −6.0
  PANSS Total Score, Difference (95% CI) in LS mean (vs placebo): −1.7
  PANSS Positive Subscale Score change from Baseline, LS mean (SE): −0.1 (0.20)
  PANSS Positive Subscale Score change from Baseline, Mean (SD): −0.4 (2.50)
  PANSS Positive Subscale Score change from Baseline, Median: 0.0
  PANSS Positive Subscale Score, Difference (95% CI) in LS mean (vs placebo): −0.3
32 mg, Week 12, pooled ITT
  NSFS Score change from Baseline, LS mean (SE): −3.5 (0.26)
  NSFS Score change from Baseline, Mean (SD): −3.6 (3.08)
  NSFS Score change from Baseline, Median: −4.0
  NSFS Score, Difference (95% CI) in LS mean (vs placebo): −0.8
  PANSS Negative Subscale Score change from Baseline, LS mean (SE): −3.6 (0.27)
  PANSS Negative Subscale Score change from Baseline, Mean (SD): −3.6 (3.37)
  PANSS Negative Subscale Score change from Baseline, Median: −3.0
  PANSS Negative Subscale Score, Difference (95% CI) in LS mean (vs placebo): −0.7
  PANSS Total Score change from Baseline, LS mean (SE): −5.5 (0.71)
  PANSS Total Score change from Baseline, Mean (SD): −6.9 (7.77)
  PANSS Total Score change from Baseline, Median: −7.0
  PANSS Total Score, Difference (95% CI) in LS mean (vs placebo): −1.9
  NSFS, LS mean decrease from Baseline compared with placebo: −3.5
  PANSS Positive Subscale Score change from Baseline, LS mean (SE): −0.1 (0.21)
  PANSS Positive Subscale Score change from Baseline, Mean (SD): −0.6(2.37)
  PANSS Positive Subscale Score change from Baseline, Median: 0.0
  PANSS Positive Subscale Score, Difference (95% CI) in LS mean (vs placebo): −0.3
  PANSS negative subscale score, LS mean change from Baseline compared with placebo: −0.7
32 mg, Week 12, ITT
  NSFS Emotional Experience Score, Change from Baseline (LS Means [SEM]): −1.3 (0.13)
  NSFS Emotional Expression Score, Change from Baseline (LS Means [SEM]): −2.2 (0.16)
  NSFS, Change from Baseline (LS Means [SEM]): −3.5 (0.26)
  PANSS General Psychopathology Subscale, Change from Baseline (LS Means [SEM]): −2.0 (0.37)
  PANSS Negative Symptoms Subscale, Change from Baseline (LS Means [SEM]): −3.6 (0.27)
  PANSS Positive Symptoms Subscale, Change from Baseline (LS Means [SEM]): −0.1 (0.21)
  PANSS Total Score, Change from Baseline (LS Means [SEM]): −5.5 (0.71)
32 mg, Week 12, pooled
  Patients with high improvement in NSFS (magnitude of change >8): 5%
  Patients with moderate improvement in NSFS (magnitude of change 6-8): 18%
  Patients with moderate or high improvement in NSFS, total: 23%
